Results: ChEMBL document CHEMBL2169878 (J Med Chem, 2012)
Active and inactive are the calls of the source. The rule behind the calls is not given here.

Assays:
Salmonella typhimurium [1] = experiment: Mutagenicity against Salmonella typhimurium TA98 assessed as revertants at 1 uM incubated for 90 mins followed by drug washout measured after 2 days relative to positive control; format: toxicity, organism-based; settings: salmonella enterica subsp. enterica serovar typhimurium
Salmonella typhimurium [2] = experiment: Mutagenicity against Salmonella typhimurium TA98 assessed as revertants at 8 uM incubated for 90 mins followed by drug washout measured after 2 days relative to positive control; format: toxicity, organism-based; settings: salmonella enterica subsp. enterica serovar typhimurium, 1.5 h
Salmonella typhimurium [3] = experiment: Mutagenicity against Salmonella typhimurium TA98 assessed as revertants at 16 uM incubated for 90 mins followed by drug washout measured after 2 days relative to positive control; format: toxicity, organism-based; settings: salmonella enterica subsp. enterica serovar typhimurium
Salmonella typhimurium [4] = experiment: Mutagenicity against Salmonella typhimurium TA98 assessed as revertants at 32 uM incubated for 90 mins followed by drug washout measured after 2 days relative to positive control; format: toxicity, organism-based; settings: salmonella enterica subsp. enterica serovar typhimurium, 1.5 h
Salmonella typhimurium [5] = experiment: Mutagenicity against Salmonella typhimurium TA100 assessed as revertants at 2 uM incubated for 90 mins followed by drug washout measured after 2 days relative to positive control; format: toxicity, organism-based; settings: salmonella enterica subsp. enterica serovar typhimurium
Salmonella typhimurium [6] = experiment: Mutagenicity against Salmonella typhimurium TA100 assessed as revertants at 4 uM incubated for 90 mins followed by drug washout measured after 2 days relative to positive control; format: toxicity, organism-based; settings: salmonella enterica subsp. enterica serovar typhimurium, 1.5 h
Salmonella typhimurium [7] = experiment: Mutagenicity against Salmonella typhimurium TA100 assessed as revertants at 9 uM incubated for 90 mins followed by drug washout measured after 2 days relative to positive control; format: toxicity, organism-based; settings: salmonella enterica subsp. enterica serovar typhimurium, 1.5 h
Salmonella typhimurium [8] = experiment: Mutagenicity against Salmonella typhimurium TA100 assessed as revertants at 1 uM incubated for 90 mins followed by drug washout measured after 2 days relative to positive control; format: toxicity, organism-based; settings: salmonella enterica subsp. enterica serovar typhimurium, 1.5 h
Salmonella typhimurium [9] = experiment: Mutagenicity against Salmonella typhimurium TA100 assessed as revertants at 16 uM incubated for 90 mins followed by drug washout measured after 2 days relative to positive control; format: toxicity, organism-based; settings: salmonella enterica subsp. enterica serovar typhimurium
Salmonella typhimurium [10] = experiment: Mutagenicity against Salmonella typhimurium TA100 assessed as revertants at 32 uM incubated for 90 mins followed by drug washout measured after 2 days relative to positive control; format: toxicity, organism-based; settings: salmonella enterica subsp. enterica serovar typhimurium
Plasmodium falciparum [11] = experiment: Resistance ratio of IC50 for chloroquine-resistant Plasmodium falciparum W2 to IC50 for chloroquine-sensitive Plasmodium falciparum D10; format: functional
Plasmodium falciparum [12] = experiment: Resistance ratio of IC50 for chloroquine-resistant Plasmodium falciparum K1 to IC50 for chloroquine-sensitive Plasmodium falciparum NF54; format: functional
[13] = target: T1, Chloroquine resistance transporter (Plasmodium falciparum) (UniProt Q9N623); experiment: Inhibition of chloroquine-resistant Plasmodium falciparum Dd2 CRT expressed in Xenopus laevis oocyte assessed as inhibition of [3H]chloroquine uptake at 100 uM measured from 1 to 2 hrs
T1 sequence (whole entry): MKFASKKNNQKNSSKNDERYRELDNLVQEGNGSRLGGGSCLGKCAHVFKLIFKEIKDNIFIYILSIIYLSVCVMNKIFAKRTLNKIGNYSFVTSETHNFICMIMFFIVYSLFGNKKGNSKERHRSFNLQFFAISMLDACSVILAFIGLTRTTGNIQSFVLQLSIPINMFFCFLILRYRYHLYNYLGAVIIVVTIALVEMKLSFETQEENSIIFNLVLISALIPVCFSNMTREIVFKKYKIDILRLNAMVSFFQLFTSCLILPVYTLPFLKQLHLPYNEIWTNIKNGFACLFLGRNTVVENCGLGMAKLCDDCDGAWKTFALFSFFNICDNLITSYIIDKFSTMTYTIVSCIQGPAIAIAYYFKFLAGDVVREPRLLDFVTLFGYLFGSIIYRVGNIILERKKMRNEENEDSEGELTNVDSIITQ

[14] = Cytotoxicity against mouse NIH3T3 cells after 24 hrs by neutral red dye uptake assay; format: cell-based; settings: read-out: TC50
[15] = Cytotoxicity against human HepG2 cells after 24 hrs by neutral red dye uptake assay; format: cell-based; settings: read-out: TC50
Salmonella typhimurium [16] = experiment: Mutagenicity against Salmonella typhimurium TA98 assessed as revertants at 2 uM incubated for 90 mins followed by drug washout measured after 2 days relative to positive control; format: toxicity, organism-based; settings: salmonella enterica subsp. enterica serovar typhimurium, 1.5 h
Salmonella typhimurium [17] = experiment: Mutagenicity against Salmonella typhimurium TA98 assessed as revertants at 4 uM incubated for 90 mins followed by drug washout measured after 2 days relative to positive control; format: toxicity, organism-based; settings: salmonella enterica subsp. enterica serovar typhimurium
Salmonella typhimurium [18] = experiment: Mutagenicity against Salmonella typhimurium TA98 assessed as revertants at 24 uM incubated for 90 mins followed by drug washout measured after 2 days relative to positive control; format: toxicity, organism-based; settings: salmonella enterica subsp. enterica serovar typhimurium, 1.5 h
Salmonella typhimurium [19] = experiment: Mutagenicity against Salmonella typhimurium TA98 assessed as revertants at 40 uM incubated for 90 mins followed by drug washout measured after 2 days relative to positive control; format: toxicity, organism-based; settings: salmonella enterica subsp. enterica serovar typhimurium
Salmonella typhimurium [20] = experiment: Mutagenicity against Salmonella typhimurium TA98 assessed as revertants at 80 uM incubated for 90 mins followed by drug washout measured after 2 days relative to positive control; format: toxicity, organism-based; settings: salmonella enterica subsp. enterica serovar typhimurium, 1.5 h
Salmonella typhimurium [21] = experiment: Mutagenicity against Salmonella typhimurium TA98 assessed as revertants at 7 uM incubated for 90 mins followed by drug washout measured after 2 days relative to positive control; format: toxicity, organism-based; settings: salmonella enterica subsp. enterica serovar typhimurium
Salmonella typhimurium [22] = experiment: Mutagenicity against Salmonella typhimurium TA98 assessed as revertants at 15 uM incubated for 90 mins followed by drug washout measured after 2 days relative to positive control; format: toxicity, organism-based; settings: salmonella enterica subsp. enterica serovar typhimurium
Salmonella typhimurium [23] = experiment: Mutagenicity against Salmonella typhimurium TA98 assessed as revertants at 61 uM incubated for 90 mins followed by drug washout measured after 2 days relative to positive control; format: toxicity, organism-based; settings: salmonella enterica subsp. enterica serovar typhimurium, 1.5 h
Salmonella typhimurium [24] = experiment: Mutagenicity against Salmonella typhimurium TA100 assessed as revertants at 24 uM incubated for 90 mins followed by drug washout measured after 2 days relative to positive control; format: toxicity, organism-based; settings: salmonella enterica subsp. enterica serovar typhimurium
Salmonella typhimurium [25] = experiment: Mutagenicity against Salmonella typhimurium TA100 assessed as revertants at 61 uM incubated for 90 mins followed by drug washout measured after 2 days relative to positive control; format: toxicity, organism-based; settings: salmonella enterica subsp. enterica serovar typhimurium
Salmonella typhimurium [26] = experiment: Mutagenicity against Salmonella typhimurium TA100 assessed as revertants at 40 uM incubated for 90 mins followed by drug washout measured after 2 days relative to positive control; format: toxicity, organism-based; settings: salmonella enterica subsp. enterica serovar typhimurium
Salmonella typhimurium [27] = experiment: Mutagenicity against Salmonella typhimurium TA100 assessed as revertants at 80 uM incubated for 90 mins followed by drug washout measured after 2 days relative to positive control; format: toxicity, organism-based; settings: salmonella enterica subsp. enterica serovar typhimurium
Salmonella typhimurium [28] = experiment: Mutagenicity against Salmonella typhimurium TA100 assessed as revertants at 7 uM incubated for 90 mins followed by drug washout measured after 2 days relative to positive control; format: toxicity, organism-based; settings: salmonella enterica subsp. enterica serovar typhimurium, 1.5 h
Salmonella typhimurium [29] = experiment: Mutagenicity against Salmonella typhimurium TA100 assessed as revertants at 15 uM incubated for 90 mins followed by drug washout measured after 2 days relative to positive control; format: toxicity, organism-based; settings: salmonella enterica subsp. enterica serovar typhimurium
Plasmodium falciparum [30] = experiment: Antiplasmodial activity against chloroquine-sensitive Plasmodium falciparum D10 infected in human RBC after 72 hrs by parasite lactate dehydrogenase assay; format: functional, organism-based; settings: D10, 72 h
Plasmodium falciparum [31] = experiment: Antiplasmodial activity against chloroquine-resistant Plasmodium falciparum W2 infected in human RBC after 72 hrs by parasite lactate dehydrogenase assay; format: functional, organism-based; settings: W2, 72 h
Plasmodium falciparum [32] = experiment: Antiplasmodial activity against chloroquine-sensitive Plasmodium falciparum NF54 infected in human erythrocytes assessed as inhibition of [3H]hypoxanthine incorporation incubated for 48 hrs prior to [3H]hypoxanthine addition measured after 48 hrs by liquid scintillation counting; format: functional, organism-based
Plasmodium falciparum [33] = experiment: Antiplasmodial activity against chloroquine-resistant Plasmodium falciparum K1 infected in human erythrocytes assessed as inhibition of [3H]hypoxanthine incorporation incubated for 48 hrs prior to [3H]hypoxanthine addition measured after 48 hrs by liquid scintillation counting; format: functional, organism-based
Plasmodium berghei [34] = experiment: Antimalarial activity against Plasmodium berghei ANKA expressing GFP infected in mouse assessed as reduction in parasitemia at 100 mg/kg, po administered 24 hrs post-infection measured 48 hrs post-dosing by flow cytometric analysis; format: functional; parameters: scale not given: the % may be the effect or the level left
Plasmodium berghei [35] = experiment: Antimalarial activity against Plasmodium berghei ANKA expressing GFP infected in mouse assessed as reduction in parasitemia at 30 mg/kg, po administered 24 hrs post-infection measured 48 hrs post-dosing by flow cytometric analysis; format: functional; parameters: scale not given: the % may be the effect or the level left
Plasmodium berghei [36] = experiment: Antimalarial activity against Plasmodium berghei ANKA expressing GFP infected in mouse assessed as mean survival days at 100 mg/kg, po administered 24 hrs post-infection (reference value: 6 to 7 days); format: functional
Plasmodium berghei [37] = experiment: Antimalarial activity against Plasmodium berghei ANKA expressing GFP infected in mouse assessed as mean survival days at 30 mg/kg, po administered 24 hrs post-infection (reference value: 6 to 7 days); format: functional
Plasmodium berghei [38] = experiment: Antimalarial activity against Plasmodium berghei ANKA expressing GFP infected in mouse assessed as cure from infection at 100 mg/kg, po administered 24 hrs post-infection measured on day 30; format: functional, organism-based; parameters: dose 100 mg/kg
Plasmodium berghei [39] = experiment: Antimalarial activity against Plasmodium berghei ANKA expressing GFP infected in mouse assessed as cure from infection at 30 mg/kg, po administered 24 hrs post-infection measured on day 30; format: functional, organism-based; parameters: dose 30 mg/kg

## Clc1cccc(C(Nc2ccnc3cc(Cl)ccc23)c2ccc(CN3CCCC3)cc2)c1 (racemic)
Salmonella typhimurium [1]
  Activity: 2%
Salmonella typhimurium [2]
  Activity: 6%
Salmonella typhimurium [3]
  Activity: 14%
Salmonella typhimurium [4]
  Activity: 2%
Salmonella typhimurium [5]
  Activity: 2%
Salmonella typhimurium [6]
  Activity: 0%
Salmonella typhimurium [7]
  Activity: 5%
Salmonella typhimurium [8]
  Activity: 5%
Salmonella typhimurium [9]
  Activity: 10%
Salmonella typhimurium [10]
  Activity: 2%
Plasmodium falciparum [11]
  Ratio IC50: 1
Plasmodium falciparum [12]
  Ratio IC50: 1.3
[13]
  inhibition: 70%
[14]
  CC50 at 24 h: 9 µM
[15]
  CC50 at 24 h: 31 µM
Salmonella typhimurium [16]
  Activity: 2%
Salmonella typhimurium [17]
  Activity: 0%

## Clc1ccc2c(NC(c3ccccc3)(c3ccc(CN4CCCC4)c(Cl)c3)c3ccc(CN4CCCC4)c(Cl)c3)ccnc2c1
Salmonella typhimurium [18]
  Activity: 5%
Salmonella typhimurium [19]
  Activity: 3%
Salmonella typhimurium [20]
  Activity: 0%
Salmonella typhimurium [21]
  Activity: 1%
Salmonella typhimurium [22]
  Activity: 1%
Salmonella typhimurium [23]
  Activity: 5%
Salmonella typhimurium [24]
  Activity: 6%
Salmonella typhimurium [25]
  Activity: 4%
Salmonella typhimurium [26]
  Activity: 4%
Salmonella typhimurium [27]
  Activity: 0%
Salmonella typhimurium [28]
  Activity: 4%
Salmonella typhimurium [29]
  Activity: 5%
Plasmodium falciparum [30]
  IC50: 0.026 µM
Plasmodium falciparum [31]
  IC50: 0.052 µM
Plasmodium falciparum [32]
  IC50: 0.0095 µM
Plasmodium falciparum [33]
  IC50: 0.0084 µM
Plasmodium berghei [34]
  Activity: 99.3%
Plasmodium berghei [35]
  Activity: 99.4%
Plasmodium berghei [36]
  MSD: 21.3 days
Plasmodium berghei [37]
  MSD: 7 days
Plasmodium berghei [38]
  Activity: inactive
Plasmodium berghei [39]
  Activity: inactive
[13]
  inhibition: 72%
[14]
  CC50 at 24 h: 15 µM
[15]
  CC50 at 24 h: 6.1 µM
